In ChEMBL document CHEMBL6114942, “(E)-3-(3-([1,1'-Biphenyl]-4-yl)-1-phenyl-1H-pyrazol-4-yl)-1-phenylprop-2-en-1-ones inducing reactive oxygen species generation through glutathione depletion” (Bioorg Med Chem Lett, 2025):
Active and inactive are the calls of the source. The calls are words filed in the database; no cut-off is given here.

Legend:
MIA PaCa-2 [1] = experiment: Induction of reactive oxygen species generation in human MIA PaCa-2 cells assessed as ROS level at 50 uM measured after 12 hrs by DCF-DA staining based flow cytometry (reference value: 461.5 +/- 57.3); format: functional
MIA PaCa-2 [2] = experiment: Induction of apoptosis in human MIA PaCa-2 cells assessed as viable cells at 50 uM measured after 24 hrs by Annexin-V-FITC/propidium iodide staining based flow cytometry (reference value: 74%); format: functional; conditions: read-out: Activity
MIA PaCa-2 [3] = experiment: Induction of GSH depletion in human MIA PaCa-2 assessed as cell population with low GSH level at 50 uM measured after 18 hrs by VB-48/propidium iodide staining based flow cytometry (reference value: 5%); format: functional
MIA PaCa-2 [4] = experiment: Induction of apoptosis in human MIA PaCa-2 cells assessed as necrotic cells at 50 uM measured after 48 hrs by Annexin-V-FITC/propidium iodide staining based flow cytometry (reference value: 11%); format: functional
MIA PaCa-2 [5] = experiment: Induction of reactive oxygen species generation in human MIA PaCa-2 cells at 50 uM measured after 12 hrs by DCF-DA staining based phase-contrast fluorescence microscopy; format: functional, cell-based
MIA PaCa-2 [6] = experiment: Induction of apoptosis in human MIA PaCa-2 cells assessed as early apoptotic cells at 50 uM measured after 24 hrs by Annexin-V-FITC/propidium iodide staining based flow cytometry (reference value: 13%); format: functional
MIA PaCa-2 [7] = experiment: Induction of apoptosis in human MIA PaCa-2 cells assessed as late apoptotic cells at 100 uM measured after 24 hrs by Annexin-V-FITC/propidium iodide staining based flow cytometry (reference value: 4%); format: functional
MIA PaCa-2 [8] = experiment: Inhibition of GST activity in human MIA PaCa-2 cells at 50 uM using CDNB as substrate measured after 6 hrs by spectrophotometric method; format: cell-based
MIA PaCa-2 [9] = experiment: Induction of apoptosis in human MIA PaCa-2 cells measured after 24 to 48 hrs by Annexin-V-FITC/propidium iodide staining based flow cytometry; format: functional, cell-based; conditions: dose 50-100 µM, time 24-48 hrs
MIA PaCa-2 [10] = experiment: Induction of apoptosis in human MIA PaCa-2 cells assessed as late apoptotic cells at 50 uM measured after 48 hrs by Annexin-V-FITC/propidium iodide staining based flow cytometry (reference value: 3%); format: functional
MIA PaCa-2 [11] = experiment: Induction of apoptosis in human MIA PaCa-2 cells assessed as early apoptotic cells at 100 uM measured after 24 hrs by Annexin-V-FITC/propidium iodide staining based flow cytometry (reference value: 13%); format: functional
MIA PaCa-2 [12] = experiment: Induction of apoptosis in human MIA PaCa-2 cells assessed as late apoptotic cells at 100 uM measured after 48 hrs by Annexin-V-FITC/propidium iodide staining based flow cytometry (reference value: 3%); format: functional
MIA PaCa-2 [13] = experiment: Induction of apoptosis in human MIA PaCa-2 cells assessed as early apoptotic cells at 50 uM measured after 48 hrs by Annexin-V-FITC/propidium iodide staining based flow cytometry (reference value: 15%); format: functional
MIA PaCa-2 [14] = experiment: Induction of apoptosis in human MIA PaCa-2 cells assessed as viable cells at 100 uM measured after 24 hrs by Annexin-V-FITC/propidium iodide staining based flow cytometry (reference value: 74%); format: functional; conditions: read-out: Activity
[15] = Induction of GSH depletion in human Primary pancreatic epithelial cells assessed as cell population with low GSH level at 50 uM measured after 18 hrs by VB-48/propidium iodide staining based flow cytometry (reference value: 7%); format: toxicity
MIA PaCa-2 [16] = experiment: Induction of apoptosis in human MIA PaCa-2 cells assessed as late apoptotic cells at 50 uM measured after 24 hrs by Annexin-V-FITC/propidium iodide staining based flow cytometry (reference value: 4%); format: functional
MIA PaCa-2 [17] = experiment: Induction of apoptosis in human MIA PaCa-2 cells assessed as viable cells at 100 uM measured after 48 hrs by Annexin-V-FITC/propidium iodide staining based flow cytometry (reference value: 71%); format: functional; conditions: read-out: Activity
MIA PaCa-2 [18] = experiment: Induction of apoptosis in human MIA PaCa-2 cells assessed as early apoptotic cells at 100 uM measured after 48 hrs by Annexin-V-FITC/propidium iodide staining based flow cytometry (reference value: 15%); format: functional
MIA PaCa-2 [19] = experiment: Induction of GSH depletion in human MIA PaCa-2 assessed as cell population with high GSH level at 50 uM measured after 18 hrs by VB-48/propidium iodide staining based flow cytometry (reference value: 95%); format: functional
[20] = Induction of GSH depletion in human Primary pancreatic epithelial cells assessed as cell population with high GSH level at 50 uM measured after 18 hrs by VB-48/propidium iodide staining based flow cytometry (reference value: 93%); format: toxicity
MIA PaCa-2 [21] = experiment: Induction of apoptosis in human MIA PaCa-2 cells assessed as necrotic cells at 50 uM measured after 24 hrs by Annexin-V-FITC/propidium iodide staining based flow cytometry (reference value: 9%); format: functional
MIA PaCa-2 [22] = experiment: Induction of apoptosis in human MIA PaCa-2 cells assessed as necrotic cells at 100 uM measured after 48 hrs by Annexin-V-FITC/propidium iodide staining based flow cytometry (reference value: 11%); format: functional
MIA PaCa-2 [23] = experiment: Induction of apoptosis in human MIA PaCa-2 cells assessed as viable cells at 50 uM measured after 48 hrs by Annexin-V-FITC/propidium iodide staining based flow cytometry (reference value: 71%); format: functional; conditions: read-out: Activity
MIA PaCa-2 [24] = experiment: Induction of apoptosis in human MIA PaCa-2 cells assessed as necrotic cells at 100 uM measured after 24 hrs by Annexin-V-FITC/propidium iodide staining based flow cytometry (reference value: 9%); format: functional

O=C(/C=C/c1cn(-c2ccccc2)nc1-c1ccc(-c2ccccc2)cc1)c1cc(F)ccc1O
Activity (MIA PaCa-2 [1]): 540

CC1=CC(=O)c2ccccc2C1=O [MENADIONE]
Activity (MIA PaCa-2 [1]): 1160.5

COc1ccc(C(=O)/C=C/c2cn(-c3ccc(OC)cc3)nc2-c2ccc(-c3ccccc3)cc2)cc1
viability at 50 µM (MIA PaCa-2 [2]): 49% | Activity (MIA PaCa-2 [1]): 799.5 | Activity (MIA PaCa-2 [3]): 44% | Activity (MIA PaCa-2 [4]): 5% | Activity (MIA PaCa-2 [5]): Active; Most Effective Among The Tested Compounds | Activity (MIA PaCa-2 [6]): 39% | Activity (MIA PaCa-2 [7]): 6% | inhibition (MIA PaCa-2 [8]): Active | Activity (MIA PaCa-2 [9]): Dose-dependent-effect | Activity (MIA PaCa-2 [10]): 8% | Activity (MIA PaCa-2 [11]): 60% | Activity (MIA PaCa-2 [12]): 11% | Activity (MIA PaCa-2 [13]): 65% | viability at 100 µM (MIA PaCa-2 [14]): 30% | Activity [15]: 14% | Activity (MIA PaCa-2 [16]): 7% | viability at 100 µM (MIA PaCa-2 [17]): 11% | Activity (MIA PaCa-2 [18]): 74% | Activity (MIA PaCa-2 [19]): 55% | Activity [20]: 86% | Activity (MIA PaCa-2 [21]): 6% | Activity (MIA PaCa-2 [22]): 4% | viability at 50 µM (MIA PaCa-2 [23]): 22% | Activity (MIA PaCa-2 [24]): 3%

O=C(/C=C/c1cn(-c2ccccc2)nc1-c1ccc(-c2ccccc2)cc1)c1cc(Cl)ccc1O
Activity (MIA PaCa-2 [1]): 661

COc1ccc(-n2cc(/C=C/C(=O)c3ccccc3OC)c(-c3ccc(-c4ccccc4)cc3)n2)cc1
Activity (MIA PaCa-2 [1]): 535.5

COc1cccc(C(=O)/C=C/c2cn(-c3ccc(F)cc3)nc2-c2ccc(-c3ccccc3)cc2)c1
Activity (MIA PaCa-2 [1]): 675

COc1ccccc1C(=O)/C=C/c1cn(-c2ccccc2)nc1-c1ccc(-c2ccccc2)cc1
Activity (MIA PaCa-2 [1]): 619.5

COc1ccc(-n2cc(/C=C/C(=O)c3cccc(OC)c3)c(-c3ccc(-c4ccccc4)cc3)n2)cc1
Activity (MIA PaCa-2 [1]): 720.5

COc1cccc(C(=O)/C=C/c2cn(-c3ccccc3)nc2-c2ccc(-c3ccccc3)cc2)c1
Activity (MIA PaCa-2 [1]): 680

COc1cccc(O)c1C(=O)/C=C/c1cn(-c2ccccc2)nc1-c1ccc(-c2ccccc2)cc1
Activity (MIA PaCa-2 [1]): 580.5

COc1ccc(C(=O)/C=C/c2cn(-c3ccc(F)cc3)nc2-c2ccc(-c3ccccc3)cc2)cc1
Activity (MIA PaCa-2 [1]): 529.5

O=C(/C=C/c1cn(-c2ccccc2)nc1-c1ccc(-c2ccccc2)cc1)c1ccc(O)cc1
Activity (MIA PaCa-2 [1]): 639

COc1ccc(C(=O)/C=C/c2cn(-c3ccc(F)cc3)nc2-c2ccc(-c3ccccc3)cc2)cc1OC
Activity (MIA PaCa-2 [1]): 534.5
